Source: patent US20240166646A1, “1H-PYRROLO[2,3-B]PYRIDINE DERIVATIVES AS BCL-2 INHIBITORS FOR THE TREATMENT OF NEOPLASTIC AND AUTOIMMUNE DISEASES” (Newave Pharmaceutical Inc., priority 2020, published 2024)
Where a name gives a salt, the structure may show the parent alone.

Experiments:
Bcl-2 = Bcl-2 (Homo sapiens (Human), UniProt P10415); test: Bcl-2 competition binding (fluorescence polarization) assay; details: fluorescein labeled BH3 peptide 15 nM, Bcl-2 protein 30 nM, 3 hours of incubation at room temperature
Sequence of Bcl-2 (P10415 whole entry): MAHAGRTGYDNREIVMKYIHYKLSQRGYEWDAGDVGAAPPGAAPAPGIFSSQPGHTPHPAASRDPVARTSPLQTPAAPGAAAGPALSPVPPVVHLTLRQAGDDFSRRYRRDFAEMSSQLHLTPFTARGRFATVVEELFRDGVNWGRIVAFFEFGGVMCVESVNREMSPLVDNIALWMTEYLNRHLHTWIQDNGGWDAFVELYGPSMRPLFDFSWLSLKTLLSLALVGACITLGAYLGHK
How it was run: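 Fluorescence polarization competition of 15 nM labeled 23-mer BH3 peptide with 30 nM purified Bcl-2, in 20 mM Hepes pH 7.0, 50 mM KCl, 5 mM MgCl2, 20 mM Na2MoO4, 0.1 mg/ml bovine gamma globulin, 0.01% NP40. Compounds 20 μM to 2 nM final; mP read after 3 h at room temperature, background-subtracted. IC50 from sigmoidal dose-response fit.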

[1] = system: BCL-2-dependent acute lymphoblastic leukemia (ALL) cell line RS4; 11 with G101V mutation; test: In vitro anti-proliferation assay (ATPlite) in RS4; 11 with G101V mutation; format: cell-based; details: about 72 hours incubation, medium with 5% FBS or 10% normal human serum, ATPlite luminescence
Protocol: Cell antiproliferation was assayed by PerkinElmer ATPlite™ Luminescence Assay System. Briefly, the various test cancer cell lines were plated at a density of about 1×10^4 cells per well in Costar 96-well plates, and were incubated with different concentrations of compounds for about 72 hours in medium supplemented with 5% FBS or 10% normal human serum (NHS). One lyophilized substrate solution vial was then reconstituted by adding 5 mL of substrate buffer solution, and was agitated gently until the solution was homogeneous. About 50 μL of mammalian cell lysis solution was added to 100 μL of cell suspension per well of a microplate, and the plate was shaken for about five minutes in an orbital shaker at ˜700 rpm. This procedure was used to lyse the cells and to stabilize the ATP. Next, 50 μL substrate solution was added to the wells and microplate was shaken for five minutes in an orbital shaker at ˜700 rpm. Finally, the luminescence was measured by a PerkinElmer TopCount® Microplate Scintillation Counter. Such assays, carried out with a range of doses of test compounds, allowed the determination of the cellular anti-antiproliferative IC50 of the compounds of the present invention.

IC50 (Bcl-2) [nM] | Structure (SMILES) | IC50 ([1]; RS4-11) [nM] | IC50 [1] [nM]
0.265 | Cc1ccccc1[C@@H]1COCCN1C1CC2(CCN(c3ccc(C(=O)NS(=O)(=O)c4ccc(NCC5CCOCC5)c([N+](=O)[O-])c4)c(N4c5cc6cc[nH]c6nc5O[C@@H]5COC[C@H]54)c3)CC2)C1 [Example 50, N-((3-nitro-4-(((tetrahydro-2H-pyran-4-yl)methyl)amino)phenyl)sulfonyl)-2-((5aR,8aS)-5a,6,8,8a-tetrahydrofuro[3,4-b]pyrrolo[3′,2′:5,6]pyrido[3,2-e][1,4]oxazin-5(1H)-yl)-4-(2-((R)-3-(o-tolyl)morpholino)-7-azaspiro[3.5]nonan-7-yl)benzamide] | 71.8 | –
1.08 | Cc1ccccc1[C@H]1COCCN1C1CC2(CCN(c3ccc(C(=O)NS(=O)(=O)c4ccc(NCC5CCOCC5)c([N+](=O)[O-])c4)c(N4c5cc6cc[nH]c6nc5O[C@@H]5COC[C@H]54)c3)CC2)C1 [Example 51, N-((3-nitro-4-(((tetrahydro-2H-pyran-4-yl)methyl)amino)phenyl)sulfonyl)-2-((5aR,8aS)-5a,6,8,8a-tetrahydrofuro[3,4-b]pyrrolo[3′,2′:5,6]pyrido[3,2-e][1,4]oxazin-5(1H)-yl)-4-(2-((S)-3-(o-tolyl)morpholino)-7-azaspiro[3.5]nonan-7-yl)benzamide] | 359 | –
0.586 | CC(C)Oc1ccccc1[C@@H]1CCCN1C1CC2(CCN(c3ccc(C(=O)NS(=O)(=O)c4ccc(NCC5CCOCC5)c([N+](=O)[O-])c4)c(N4c5cc6cc[nH]c6nc5O[C@H]5COC[C@H]54)c3)CC2)C1 [Example 54, 4-(2-((S)-2-(2-isopropoxyphenyl)pyrrolidin-1-yl)-7-azaspiro[3.5]nonan-7-yl)-N-((3-nitro-4-(((tetrahydro-2H-pyran-4-yl)methyl)amino)phenyl)sulfonyl)-2-((5aR,8aR)-5a,6,8,8a-tetrahydrofuro[3,4-b]pyrrolo[3′,2′:5,6]pyrido[3,2-e][1,4]oxazin-5(1H)-yl)benzamide] | > 1000 | –
0.608 | CC(C)Oc1ccccc1[C@@H]1CCCN1C1CC2(CCN(c3ccc(C(=O)NS(=O)(=O)c4ccc(NCC5CCOCC5)c([N+](=O)[O-])c4)c(N4c5cc6cc[nH]c6nc5O[C@@H]5COC[C@@H]54)c3)CC2)C1 [Example 55, 4-(2-((S)-2-(2-isopropoxyphenyl)pyrrolidin-1-yl)-7-azaspiro[3.5]nonan-7-yl)-N-((3-nitro-4-(((tetrahydro-2H-pyran-4-yl)methyl)amino)phenyl)sulfonyl)-2-((5aS,8aS)-5a,6,8,8a-tetrahydrofuro[3,4-b]pyrrolo[3′,2′:5,6]pyrido[3,2-e][1,4]oxazin-5(1H)-yl)benzamide] | 392 | –
0.324 | CC(C)Oc1ccccc1[C@@H]1CCCN1C1CC2(CCN(c3ccc(C(=O)NS(=O)(=O)c4ccc(NCC5CCOCC5)c([N+](=O)[O-])c4)c(N4c5cc6cc[nH]c6nc5O[C@H]5CCOC[C@@H]54)c3)CC2)C1 [Example 58, 4-(2-((S)-2-(2-isopropoxyphenyl)pyrrolidin-1-yl)-7-azaspiro[3.5]nonan-7-yl)-N-((3-nitro-4-(((tetrahydro-2H-pyran-4-yl)methyl)amino)phenyl)sulfonyl)-2-((5aS,9aS)-5a,8,9,9a-tetrahydro-6H-pyrano[4,3-b]pyrrolo[3′,2′:5,6]pyrido[3,2-e][1,4]oxazin-5(1H)-yl)benzamide] | 188 | –
0.101 | CC(C)Oc1ccccc1[C@@H]1CCCN1C1CC2(CCN(c3ccc(C(=O)NS(=O)(=O)c4ccc(NCC5CCOCC5)c([N+](=O)[O-])c4)c(N4c5cc6cc[nH]c6nc5O[C@@H]5CCOC[C@H]54)c3)CC2)C1 [Example 59, 4-(2-((S)-2-(2-isopropoxyphenyl)pyrrolidin-1-yl)-7-azaspiro[3.5]nonan-7-yl)-N-((3-nitro-4-(((tetrahydro-2H-pyran-4-yl)methyl)amino)phenyl)sulfonyl)-2-((5aR,9aR)-5a,8,9,9a-tetrahydro-6H-pyrano[4,3-b]pyrrolo[3′,2′:5,6]pyrido[3,2-e][1,4]oxazin-5(1H)-yl)benzamide] | 124 | –
0.314 | CC(C)c1ccsc1[C@@H]1CCCN1C1CC2(CCN(c3ccc(C(=O)NS(=O)(=O)c4ccc(NCC5CCOCC5)c([N+](=O)[O-])c4)c(N4c5cc6cc[nH]c6nc5O[C@@H]5COC[C@H]54)c3)CC2)C1 [Example 63, 4-(2-((S)-2-(3-isopropylthiophen-2-yl)pyrrolidin-1-yl)-7-azaspiro[3.5]nonan-7-yl)-N-((3-nitro-4-(((tetrahydro-2H-pyran-4-yl)methyl)amino)phenyl)sulfonyl)-2-((5aR,8aS)-5a,6,8,8a-tetrahydrofuro[3,4-b]pyrrolo[3′,2′:5,6]pyrido[3,2-e][1,4]oxazin-5(1H)-yl)benzamide hydrochloride] | 49.6 | –
0.425 | Cc1ccccc1[C@@H]1COCCCN1C1CC2(CCN(c3ccc(C(=O)NS(=O)(=O)c4ccc(NCC5CCOCC5)c([N+](=O)[O-])c4)c(N4c5cc6cc[nH]c6nc5O[C@@H]5COC[C@H]54)c3)CC2)C1 [Example 65, N-((3-nitro-4-(((tetrahydro-2H-pyran-4-yl)methyl)amino)phenyl)sulfonyl)-2-((5aR,8aS)-5a,6,8,8a-tetrahydrofuro[3,4-b]pyrrolo[3′,2′:5,6]pyrido[3,2-e][1,4]oxazin-5(1H)-yl)-4-(2-((R)-3-(o-tolyl)-1,4-oxazepan-4-yl)-7-azaspiro[3.5]nonan-7-yl)benzamide] | > 1000 | –

Structure (SMILES) | IC50 (Bcl-2) [nM] | IC50 ([1]; RS4-11) [nM] | IC50 [1] [nM]
CC(C)c1cc(F)ccc1[C@@H]1CCCN1C1CC2(CCN(c3ccc(C(=O)NS(=O)(=O)c4ccc(NCC5CCOCC5)c([N+](=O)[O-])c4)c(N4c5cc6cc[nH]c6nc5O[C@@H]5COC[C@H]54)c3)CC2)C1 [Example 60, 2-[(11R,15S)-13,16-dioxa-2,4,10-triazatetracyclo[7.7.0.0^{3,7}.0^{11,15}]hexadeca-1(9),2,5,7-tetraen-10-yl]-4-{2-[(2S)-2-(4-fluoro-2-isopropylphenyl)pyrrolidin-1-yl]-7-azaspiro[3.5]nonan-7-yl}-N-{3-nitro-4-[(oxan-4-ylmethyl)amino]benzenesulfonyl}benzamide] | 0.341 | – | 62.4
Cc1ccccc1C1CC(C)(C)CN1C1CC2(CCN(c3ccc(C(=O)NS(=O)(=O)c4ccc(NCC5CCOCC5)c([N+](=O)[O-])c4)c(N4c5cc6cc[nH]c6nc5O[C@@H]5COC[C@H]54)c3)CC2)C1 (stereo partly drawn) [Example 61, 4-{2-[4,4-dimethyl-2-(2-methylphenyl)pyrrolidin-1-yl]-7-azaspiro[3.5]nonan-7-yl}-2-[(11R,15S)-13,16-dioxa-2,4,10-triazatetracyclo[7.7.0.0^{3,7}.0^{11,15}]hexadeca-1(9),2,5,7-tetraen. 10-yl]-N-{3-nitro-4-[(oxan-4-ylmethyl)amino]benzenesulfonyl}benzamide] | 0.707 | – | 130
CC(C)Oc1ccccc1[C@@H]1CCCN1C1CC2(CCN(c3ccc(C(=O)NS(=O)(=O)c4ccc(NCC5CCOCC5)c([N+](=O)[O-])c4)c(N4c5cc6cc[nH]c6nc5O[C@H]5COCC[C@@H]54)c3)CC2)C1 [Example 62, 4-(2-((S)-2-(2-isopropoxyphenyl)pyrrolidin-1-yl)-7-azaspiro[3.5]nonan-7-yl)-N-((3-nitro-4-(((tetrahydro-2H-pyran-4-yl)methyl)amino)phenyl)sulfonyl)-2-((5aS,9aR)-6,7,9,9a-tetrahydro. 1H-pyrano[3,4-b]pyrrolo[3′,2′:5,6]pyrido[3,2-e][1,4]oxazin-5(5aH)-yl)benzamide hydrochloride] | 0.41 | – | 121
CC(C)Oc1ccccc1[C@@H]1CCCN1C1CC2(CCN(c3ccc(C(=O)NS(=O)(=O)c4ccc(NCC5CCOCC5)c([N+](=O)[O-])c4)c(N4c5cc6cc[nH]c6nc5O[C@H]5COCC[C@H]54)c3)CC2)C1 [Example 64, 2-[(3R,8R)-2,5-dioxa-9,15,17-triazatetracyclo[8.7.0.0^{3,8}.0^{12,16}]heptadeca-1(10),11,13,16-tetraen-9-yl]-4-{2-[(2S)-2-(2-isopropoxyphenyl)pyrrolidin-1-yl]-7-azaspiro[3.5]nonan-7-yl}-N-{3-nitro-4-[(oxan-4-ylmethyl)amino]benzenesulfonyl}benzamide] | 0.341 | – | 62.4
Cc1ccccc1[C@H]1COCCCN1C1CC2(CCN(c3ccc(C(=O)NS(=O)(=O)c4ccc(NCC5CCOCC5)c([N+](=O)[O-])c4)c(N4c5cc6cc[nH]c6nc5O[C@@H]5COC[C@H]54)c3)CC2)C1 [Example 66, 2-[(11R,15S)-13,16-dioxa-2,4,10-triazatetracyclo[7.7.0.0^{3,7}.0^{11,15}]hexadeca-1(9),2,5,7-tetraen-10-yl]-4-{2-[(3S)-3-(2-methylphenyl)-1,4-oxazepan-4-yl]-7-azaspiro[3.5]nonan-7-yl}-N-{3-nitro-4-[(oxan-4-ylmethyl)amino]benzenesulfonyl}benzamide] | 0.564 | – | 296
